Assay results from patent publication US20260248972A1, “DUAL RECEPTOR TARGETING RADIOLIGANDS AND USES THEREOF RELATED APPLICATIONS” (priority 2022, published 2026).

Assay: in vivo
Conditions: BALB/c nude, mouse, iv, total radioactivity
Summary of the method: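 Compounds labelled with ^177Lu in 0.5 M NaOAc pH 4.5 at 95° C for 15 min, then used directly or diluted in PBS with 3 mg/mL ascorbate. BALB/c nude mice bore subcutaneous AR42J flank xenografts (0.05-0.50 g). Organs excised at 4, 24 and 72 h post-injection and γ-counted for % ID and % ID/g.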

Structure (SMILES) | tissue uptake at 4 h (in vivo, % ID/g Blood) | tissue uptake at 24 h (in vivo, % ID/g Blood) | tissue uptake at 4 h (in vivo, % ID/g Femur) | tissue uptake at 24 h (in vivo, % ID/g Femur) | tissue uptake at 4 h (in vivo, % ID/g Heart) | tissue uptake at 24 h (in vivo, % ID/g Heart) | tissue uptake at 4 h (in vivo, % ID/g Intestine) | tissue uptake at 24 h (in vivo, % ID/g Intestine) | tissue uptake at 4 h (in vivo, % ID/g Kidney) | tissue uptake at 24 h (in vivo, % ID/g Kidney) | tissue uptake at 4 h (in vivo, % ID/g Liver) | tissue uptake at 24 h (in vivo, % ID/g Liver) | tissue uptake at 4 h (in vivo, % ID/g Lung) | tissue uptake at 24 h (in vivo, % ID/g Lung) | tissue uptake at 4 h (in vivo, % ID/g Muscle) | tissue uptake at 24 h (in vivo, % ID/g Muscle) | tissue uptake at 4 h (in vivo, % ID/g Pancreas) | tissue uptake at 4 h (in vivo, % ID/g Spleen) | tissue uptake at 24 h (in vivo, % ID/g Spleen) | tissue uptake at 4 h (in vivo, % ID/g Stomach) | also measured
C[C@@H](O)[C@H](NC(=O)[C@@H]1CSSC[C@H](NC(=O)[C@@H](Cc2ccccc2)NC(=O)CN2CCN(CC(=O)O)CCN(CC(=O)O)CCN(CC(=O)O)CC2)C(=O)N[C@@H](Cc2ccc(O)cc2)C(=O)N[C@H](Cc2c[nH]c3ccccc23)C(=O)N[C@@H](CCCCN)C(=O)N[C@@H]([C@@H](C)O)C(=O)N1)C(=O)O [^177Lu-C-1, metal not drawn, reference compound] | 0.02 %ID/g | 0.01 %ID/g | 0.07 %ID/g | 0.11 %ID/g | 0.06 %ID/g | 0.05 %ID/g | 0.2 %ID/g | 0.46 %ID/g | 3.88 %ID/g | 1.21 %ID/g | 0.1 %ID/g | 0.07 %ID/g | 0.63 %ID/g | 0.32 %ID/g | 0.01 %ID/g | 0.02 %ID/g | 0.02 %ID/g | 0.08 %ID/g | 0.04 %ID/g | 1.18 %ID/g | tissue uptake at 4 h (in vivo, % ID/g Adrenal gland): 8.73 %ID/g; tissue uptake at 24 h (in vivo, % ID/g Adrenal gland): 0.15 %ID/g; tissue uptake at 72 h (in vivo, % ID/g Adrenal gland): 0.13 %ID/g; tissue uptake at 72 h (in vivo, % ID/g Blood): 0.01 %ID/g; tissue uptake at 72 h (in vivo, % ID/g Femur): 0.08 %ID/g; tissue uptake at 72 h (in vivo, % ID/g Heart): 0.04 %ID/g; tissue uptake at 72 h (in vivo, % ID/g Intestine): 0.11 %ID/g; tissue uptake at 72 h (in vivo, % ID/g Liver): 0.06 %ID/g; tissue uptake at 72 h (in vivo, % ID/g Lung): 0.21 %ID/g; tissue uptake at 72 h (in vivo, % ID/g Muscle): 0.01 %ID/g; tissue uptake at 24 h (in vivo, % ID/g Pancreas): 0.16 %ID/g; tissue uptake at 72 h (in vivo, % ID/g Pancreas): 0.03 %ID/g; tissue uptake at 72 h (in vivo, % ID/g Spleen): 0.05 %ID/g; tissue uptake at 24 h (in vivo, % ID/g Stomach): 0.59 %ID/g; tissue uptake at 72 h (in vivo, % ID/g Stomach): 0.21 %ID/g; tissue uptake at 4 h (in vivo, % ID/g Tumor): 14 %ID/g; tissue uptake at 24 h (in vivo, % ID/g Tumor): 5.76 %ID/g; tissue uptake at 72 h (in vivo, % ID/g Tumor): 4.33 %ID/g
CCCC[C@H](NC(=O)[C@H](Cc1c[nH]c2ccccc12)NC(=O)CNC(=O)[C@H](Cc1ccc(O)cc1)NC(=O)[C@H](C)NC(=O)[C@@H](CCC(=O)O)NC(=O)[C@@H](CCC(=O)O)NC(=O)[C@@H](CCC(=O)O)NC(=O)[C@@H](CCC(=O)O)NC(=O)[C@@H](CCC(=O)O)NC(=O)[C@@H](CCC(=O)O)NC(=O)CN1CCN(CC(=O)O)CCN(CC(=O)O)CCN(CC(=O)O)CC1)C(=O)N[C@@H](CC(=O)O)C(=O)N[C@@H](Cc1ccccc1)C(N)=O [^177Lu-C-2, metal not drawn, reference compound] | 0.08 %ID/g | 0.01 %ID/g | 0.12 %ID/g | 0.24 %ID/g | 0.05 %ID/g | 0.04 %ID/g | 0.06 %ID/g | 0.05 %ID/g | 2.72 %ID/g | 0.71 %ID/g | 0.15 %ID/g | 0.12 %ID/g | 0.06 %ID/g | 0.11 %ID/g | 0.06 %ID/g | 0.01 %ID/g | 0.01 %ID/g | 0.06 %ID/g | 0.05 %ID/g | 0.21 %ID/g | tissue uptake at 24 h (in vivo, % ID/g Stomach): 0.17 %ID/g; tissue uptake at 4 h (in vivo, % ID/g Tumor): 1.07 %ID/g; tissue uptake at 24 h (in vivo, % ID/g Tumor): 0.82 %ID/g; tissue uptake at 24 h (pancreas, % ID/g Pancreas, 24 h post-injection, n=3): 0.02 %ID/g
